1 molecule from ChEMBL document CHEMBL1135866, “Photochemical preparation of a pyridone containing tetracycle: a Jak protein kinase inhibitor” (Bioorg Med Chem Lett, 2002) can be followed below.

For test [1], the target named is Protein kinase C alpha type (Homo sapiens, UniProt P17252). In words: Inhibition of protein kinase C alpha.
Test [2] concerns the target T1, Inhibitor of nuclear factor kappa-B kinase subunit beta (Homo sapiens, UniProt O14920).
T1 sequence (O14920 whole entry): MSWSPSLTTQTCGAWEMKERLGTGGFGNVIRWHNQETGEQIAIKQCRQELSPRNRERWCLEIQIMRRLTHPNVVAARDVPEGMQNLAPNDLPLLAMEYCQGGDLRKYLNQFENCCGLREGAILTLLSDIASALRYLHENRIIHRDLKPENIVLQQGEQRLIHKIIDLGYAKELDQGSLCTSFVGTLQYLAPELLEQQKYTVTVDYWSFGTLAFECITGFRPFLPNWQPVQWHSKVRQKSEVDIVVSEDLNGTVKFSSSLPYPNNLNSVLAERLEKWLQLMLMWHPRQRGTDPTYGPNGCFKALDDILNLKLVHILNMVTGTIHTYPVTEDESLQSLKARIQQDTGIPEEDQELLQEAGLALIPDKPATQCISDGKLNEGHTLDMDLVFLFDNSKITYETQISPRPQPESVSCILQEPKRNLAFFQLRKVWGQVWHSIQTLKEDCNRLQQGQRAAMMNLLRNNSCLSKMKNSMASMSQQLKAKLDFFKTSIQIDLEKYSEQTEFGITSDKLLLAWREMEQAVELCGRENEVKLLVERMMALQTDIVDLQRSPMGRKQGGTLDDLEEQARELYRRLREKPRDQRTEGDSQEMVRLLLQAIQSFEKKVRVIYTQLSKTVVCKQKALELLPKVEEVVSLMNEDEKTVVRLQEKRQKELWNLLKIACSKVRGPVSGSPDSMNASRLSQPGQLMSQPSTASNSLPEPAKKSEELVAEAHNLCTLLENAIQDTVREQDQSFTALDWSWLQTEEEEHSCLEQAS
Briefly: Inhibition of I-kappa-B kinase 2.

Test [3] can be described thus: Inhibition of IL-2 induced JAK-1/JAK-3-associated murine T cell lymphoma cell proliferation. The settings on record: Mus musculus. The class given is functional, cell-based.
For a further test, the system named is CTLL. Briefly: Inhibition of PMA-induced murine T cell lymphoma cell proliferation. The note with it: Mus musculus. Format: functional, cell-based.
Test [4] is described as follows: Inhibition of protein kinase cAMP-dependent protein kinase.
For a further test, the target named is Angiopoietin-1 receptor (Homo sapiens, UniProt Q02763). In words: Inhibition of Tek kinase.
Test [5] deals with Tyrosine-protein kinase HCK (Homo sapiens, UniProt P08631). In words: Inhibition of protein kinase Hck.
Test [6] in a line: Inhibition of IL-4 induced JAK-1/JAK-3 associated murine T cell lymphoma cell proliferation. Format: functional, cell-based. The note with it: Mus musculus.
In test [7] the target is Fibroblast growth factor receptor 2 (Homo sapiens, UniProt P21802). In words: Inhibition of Fibroblast growth factor receptor 2.
Test [8] addresses Cyclin-dependent kinase 2 (Homo sapiens, UniProt P24941). In words: Inhibition of cyclin dependent kinase 2.
For test [9], the target named is RAF proto-oncogene serine/threonine-protein kinase (Homo sapiens, UniProt P04049). Briefly: Inhibition of protein kinase Raf.
The target in test [10] is Vascular endothelial growth factor receptor 3 (Homo sapiens, UniProt P35916). In words: Inhibition of Vascular endothelial growth factor receptor 3.
Sequence of Vascular endothelial growth factor receptor 3 (P35916 whole entry): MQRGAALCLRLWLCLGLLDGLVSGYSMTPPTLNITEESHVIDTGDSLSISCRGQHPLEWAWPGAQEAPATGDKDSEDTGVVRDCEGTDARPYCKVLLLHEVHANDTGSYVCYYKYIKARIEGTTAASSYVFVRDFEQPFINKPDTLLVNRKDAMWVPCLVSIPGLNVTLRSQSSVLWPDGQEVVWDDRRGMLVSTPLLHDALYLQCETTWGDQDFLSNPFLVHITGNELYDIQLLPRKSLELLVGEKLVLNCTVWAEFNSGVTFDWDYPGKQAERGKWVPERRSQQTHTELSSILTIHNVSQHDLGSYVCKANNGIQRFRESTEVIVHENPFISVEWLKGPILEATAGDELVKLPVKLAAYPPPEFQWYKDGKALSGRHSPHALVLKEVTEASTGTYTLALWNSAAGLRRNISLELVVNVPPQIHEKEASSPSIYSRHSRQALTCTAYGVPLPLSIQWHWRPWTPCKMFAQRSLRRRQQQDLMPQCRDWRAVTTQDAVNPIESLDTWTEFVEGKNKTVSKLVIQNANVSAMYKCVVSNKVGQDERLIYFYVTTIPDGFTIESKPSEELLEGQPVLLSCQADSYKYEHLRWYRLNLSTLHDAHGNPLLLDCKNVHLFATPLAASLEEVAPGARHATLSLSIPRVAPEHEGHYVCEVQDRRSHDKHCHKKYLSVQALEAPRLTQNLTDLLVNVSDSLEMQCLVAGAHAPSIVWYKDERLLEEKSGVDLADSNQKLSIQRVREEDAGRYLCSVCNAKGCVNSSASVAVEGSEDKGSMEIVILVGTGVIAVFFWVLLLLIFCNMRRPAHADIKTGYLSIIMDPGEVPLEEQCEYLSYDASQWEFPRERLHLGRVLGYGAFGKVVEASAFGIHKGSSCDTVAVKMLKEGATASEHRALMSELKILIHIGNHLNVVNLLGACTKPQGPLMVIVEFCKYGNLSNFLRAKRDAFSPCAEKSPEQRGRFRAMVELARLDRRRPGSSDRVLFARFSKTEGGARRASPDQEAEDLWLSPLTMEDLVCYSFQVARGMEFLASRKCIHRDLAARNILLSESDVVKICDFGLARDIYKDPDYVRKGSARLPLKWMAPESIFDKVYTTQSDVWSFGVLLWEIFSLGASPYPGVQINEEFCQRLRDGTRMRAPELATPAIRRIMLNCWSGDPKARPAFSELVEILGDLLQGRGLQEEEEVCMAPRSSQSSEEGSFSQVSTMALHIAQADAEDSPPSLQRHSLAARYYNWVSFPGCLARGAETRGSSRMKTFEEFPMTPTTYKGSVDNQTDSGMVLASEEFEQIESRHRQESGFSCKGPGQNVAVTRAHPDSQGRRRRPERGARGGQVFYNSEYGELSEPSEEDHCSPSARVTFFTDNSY

Sequence of Angiopoietin-1 receptor (Q02763 whole entry): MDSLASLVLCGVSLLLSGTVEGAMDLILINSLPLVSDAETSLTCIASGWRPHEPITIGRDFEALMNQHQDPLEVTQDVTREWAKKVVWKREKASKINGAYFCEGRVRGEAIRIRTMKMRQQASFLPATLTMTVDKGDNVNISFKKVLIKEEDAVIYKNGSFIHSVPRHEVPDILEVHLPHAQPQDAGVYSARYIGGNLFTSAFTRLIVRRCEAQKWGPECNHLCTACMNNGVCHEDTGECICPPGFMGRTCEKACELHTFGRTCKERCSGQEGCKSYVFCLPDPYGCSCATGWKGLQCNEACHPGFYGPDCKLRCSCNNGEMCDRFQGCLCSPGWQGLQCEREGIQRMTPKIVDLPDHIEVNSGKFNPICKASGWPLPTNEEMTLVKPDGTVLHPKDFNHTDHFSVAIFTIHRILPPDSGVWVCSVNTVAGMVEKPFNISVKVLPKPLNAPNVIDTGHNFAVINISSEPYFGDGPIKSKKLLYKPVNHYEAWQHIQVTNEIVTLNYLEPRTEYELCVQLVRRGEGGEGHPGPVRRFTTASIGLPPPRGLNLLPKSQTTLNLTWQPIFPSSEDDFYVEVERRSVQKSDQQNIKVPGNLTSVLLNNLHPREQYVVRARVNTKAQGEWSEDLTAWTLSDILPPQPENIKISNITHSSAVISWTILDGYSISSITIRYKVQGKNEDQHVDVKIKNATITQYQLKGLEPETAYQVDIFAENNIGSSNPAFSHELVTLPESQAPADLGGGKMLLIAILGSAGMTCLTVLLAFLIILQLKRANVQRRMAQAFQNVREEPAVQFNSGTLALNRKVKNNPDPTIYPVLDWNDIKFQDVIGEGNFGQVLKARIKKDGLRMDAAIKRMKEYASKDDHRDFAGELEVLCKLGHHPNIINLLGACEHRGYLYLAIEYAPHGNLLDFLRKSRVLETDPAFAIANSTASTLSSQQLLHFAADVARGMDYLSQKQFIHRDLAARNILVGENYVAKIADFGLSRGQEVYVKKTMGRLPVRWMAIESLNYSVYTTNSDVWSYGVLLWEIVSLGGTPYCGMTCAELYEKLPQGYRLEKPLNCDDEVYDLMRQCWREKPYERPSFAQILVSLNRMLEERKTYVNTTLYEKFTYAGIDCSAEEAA
Sequence of Fibroblast growth factor receptor 2 (P21802 whole entry): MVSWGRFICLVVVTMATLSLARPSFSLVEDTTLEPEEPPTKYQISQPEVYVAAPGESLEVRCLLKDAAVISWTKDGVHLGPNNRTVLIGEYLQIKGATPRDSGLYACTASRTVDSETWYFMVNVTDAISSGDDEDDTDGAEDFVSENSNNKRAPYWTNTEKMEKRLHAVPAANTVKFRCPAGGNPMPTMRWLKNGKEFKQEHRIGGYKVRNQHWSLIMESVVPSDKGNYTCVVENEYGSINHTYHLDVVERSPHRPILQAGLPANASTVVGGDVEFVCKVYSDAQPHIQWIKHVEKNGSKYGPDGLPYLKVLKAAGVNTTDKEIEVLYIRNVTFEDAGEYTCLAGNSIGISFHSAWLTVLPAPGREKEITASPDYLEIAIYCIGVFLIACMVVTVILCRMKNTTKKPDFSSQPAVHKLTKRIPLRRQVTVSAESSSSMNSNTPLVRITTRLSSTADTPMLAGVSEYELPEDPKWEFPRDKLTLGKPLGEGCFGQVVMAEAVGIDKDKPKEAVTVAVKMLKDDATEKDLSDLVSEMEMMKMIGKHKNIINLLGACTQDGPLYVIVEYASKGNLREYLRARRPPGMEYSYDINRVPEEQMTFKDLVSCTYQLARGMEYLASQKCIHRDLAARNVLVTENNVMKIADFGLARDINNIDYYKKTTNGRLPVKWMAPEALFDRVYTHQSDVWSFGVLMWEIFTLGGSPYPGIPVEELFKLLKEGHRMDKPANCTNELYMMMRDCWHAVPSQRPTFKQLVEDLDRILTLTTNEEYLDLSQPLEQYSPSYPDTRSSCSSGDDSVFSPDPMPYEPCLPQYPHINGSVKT
Sequence of Tyrosine-protein kinase HCK (P08631 whole entry): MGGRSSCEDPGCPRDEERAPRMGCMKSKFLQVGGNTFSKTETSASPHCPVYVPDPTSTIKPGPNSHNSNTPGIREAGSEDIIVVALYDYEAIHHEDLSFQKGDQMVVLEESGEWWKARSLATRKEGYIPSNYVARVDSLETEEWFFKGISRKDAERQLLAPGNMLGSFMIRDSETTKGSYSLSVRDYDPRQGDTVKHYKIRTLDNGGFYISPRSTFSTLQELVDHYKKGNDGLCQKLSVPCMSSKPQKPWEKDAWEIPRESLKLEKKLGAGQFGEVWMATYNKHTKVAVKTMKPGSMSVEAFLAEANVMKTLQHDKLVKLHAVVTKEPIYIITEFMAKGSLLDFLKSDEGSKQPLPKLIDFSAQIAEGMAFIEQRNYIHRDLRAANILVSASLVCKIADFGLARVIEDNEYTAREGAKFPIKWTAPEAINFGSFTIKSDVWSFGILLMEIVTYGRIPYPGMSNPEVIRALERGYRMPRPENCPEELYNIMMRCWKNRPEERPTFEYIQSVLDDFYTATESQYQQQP

Turning to `CC(C)(C)c1nc2c3ccc(F)cc3c3c(=O)[nH]ccc3c2[nH]1`, the IC50 in test [1] was determined as 1200 nM; in test [2], 300 nM; in [3], 100 nM; in the test with CTLL it was 3100 nM; in [4], 7100 nM; on Angiopoietin-1 receptor, 24000 nM. Also, the IC50 was 7700 nM in [5]; 52 nM in test [6]; 940 nM in [7]; 3300 nM in [8]; more than 10000 nM in test [9]; 690 nM in test [10].

In general, IC50 refers to the midpoint of a concentration-inhibition curve. A higher IC50 goes with weaker potency.
